Values of other authors as cited in publication PMC5677520 (Journal of medicinal chemistry, 2017).

Details: result in words

CC[C@H](C)[C@@H]1NC(=O)c2csc(n2)[C@@H](C)NC(=O)[C@H]2N=C(O[C@@H]2C)[C@H](C(C)C)NC(=O)c2csc(n2)[C@@H](Cc2ccccc2)NC(=O)[C@H]2N=C1O[C@@H]2C [patellamide C]
passive permeabilities: druglike

cylindrocyclin
passive permeabilities: druglike
